The values that follow come from paper PMC8229129, “Local Colonic Administration of a Serine Protease Inhibitor Improves Post-Inflammatory Visceral Hypersensitivity in Rats” (Pharmaceutics, 2021).

Assay [1] deals with neutrophil elastase. Details: method as in PMID 29911328. The following applies: in vitro; cited from earlier work.
In assay [2] the test system is MPO activity in colonic tissue. As to the kind of experiment: Colonic myeloperoxidase (MPO) activity. The following applies: for MPO Activity, Day of VMR: mean ± SEM, n = 8, significant effect of treatment. The class given is in vivo, Sprague–Dawley rats. Here is the method: Finally, colonic MPO activity was determined in a full-thickness colonic segment (±30 mg) as published previously. MPO is a pro-inflammatory enzyme stored in the azurophilic granules of neutrophilic granulocytes and monocytes. […] One unit (U) of MPO activity is defined as the amount of enzyme required to convert 1 µmol H2O2 to H2O within 1 min at 25 °C and is expressed as U/g tissue.

The subject of assay [3] is trypsin-like, chymotrypsin-like, cathepsin G, elastase-like, and kallikrein activities in colon tissue. As to the kind of experiment: Proteolytic activities in colonic tissue of control rats after intracolonic administration. The class given is in vivo, Sprague–Dawley rats. The following applies: 5 mg/kg intracolonic. Here is the method:
(§1) The serine protease inhibitor UAMC-00050 (0.1–1.0–2.5–5.0 mg/kg, dissolved in a volume of 200 µL) or its vehicle (5% DMSO in H2O) was delivered colonically using a flexible catheter (18 G, length 4.5 cm) under short-lasting isoflurane anesthesia (5.0% induction, 1.5% maintenance). To prevent expulsion of the enema, animals were held in a Trendelenburg position for 90 s. Doses for intracolonic administration were based on the doses known to be effective via an i.p. administration and adapted afterwards based on preliminary results.
(§2) Trypsin-like, chymotrypsin-like, cathepsin G, elastase-like, and kallikrein activities were determined in colon tissue and fecal samples to profile serine protease activity. […]
(§3) Boc-Gln-Ala-Arg-AMC (75 µM) and n-Tosyl-Gly-Pro-Arg-AMC (100 µM) in 50 mM Tris-HCl pH 8.0 containing 120 mM NaCl were used to measure the trypsin-like activity. […] The fluorescence was measured during 20 min at 37 °C on a Tecan Infinite F200 Pro microtiter plate reader. The other activities were assessed in a similar assay, using the substrates mentioned below. Chymotrypsin-like and kallikrein activity were measured with Suc-Ala-Ala-Pro-Phe-AMC (0.45 mM) and H-Pro-Phe-Arg-AMC (0.45 mM), respectively. Elastase-like activity was measured using two assays, one using Suc-Ala-Ala-Pro-Val-AMC as a substrate and the other using Suc-Ala-Ala-Ala-AMC (both 0.45 mM). […]

Assay [4] has as its system kallikrein 2. Details: method as in PMID 29911328. The following applies: in vitro; cited from earlier work.
The subject of assay [5] is matriptase. Details: method as in PMID 29911328. The conditions noted are these: in vitro; cited from earlier work.
The test system of assay [6] is plasmin. Details: method as in PMID 29911328. The following applies: in vitro; cited from earlier work.
Assay [7] relates to inflammatory parameters. Details: method as in PMID 29911328. The conditions noted are these: post-inflammatory model, intraperitoneal treatment; cited from earlier work.
Assay [8] concerns colonic mucosal inflammation. As to the kind of experiment: Colonoscopic inflammatory score. The format is in vivo, Sprague–Dawley rats. The following applies: for Colonoscopy, Day of VMR: score 0–19, mean ± SEM, n = 8. As for the experimental part:
An in vivo colonoscopy was performed to assess the presence and extent of TNBS-induced colitis, as previously described. Briefly, rats were anesthetized (ketamine/xylazine, 35/5 mg/kg, i.p.) and placed in a supine position. The lubricated tip of a pediatric upper gastrointestinal endoscope (Olympus GIF-N30) was carefully introduced into the colorectum and advanced until the hepatic flexure was reached. Then, the endoscope was slowly withdrawn while assessing the mucosal damage using a validated and standardized scoring system (Supplementary Table S1). In brief, a total inflammatory score (0–19) was calculated based on the extent of ulcerations, as well as on the presence of edema, bleeding, and colonic stenosis.

Assay [9] concerns the target chymotrypsin (Bos taurus, UniProt P00766). As to the kind of experiment: Inhibition of chymotrypsin by UAMC-00050 (IC50). The conditions noted are these: in vitro. The class given is biochemical. As for the experimental part:
Here, the potency of UAMC-00050 to inhibit two other serine proteases, chymotrypsin and pancreatic elastase, with specificity was determined.

Assay [10] relates to chymotrypsin-like activity in colonic tissue. As to the kind of experiment: Chymotrypsin-like activity in colonic tissue after intracolonic administration (Suc-Ala-Ala-Pro-Phe-AMC). The format is in vivo, Sprague–Dawley rats. The following applies: post-colitis rats, 5 mg/kg intracolonic, colon harvested 90 min after administration, median (IQR), n = 12; vehicle 1.54 (1.06), p < 0.05. Here is the method:
as §1, §2, §3

In assay [11] the test system is uPA. The arrangement: method as in PMID 29911328. The following applies: in vitro; cited from earlier work.

pIC50: −log10 of the molar value. Some results are limits rather than exact numbers.

For the compound `CC(=O)Nc1ccc(OP(=O)(Oc2ccc(NC(C)=O)cc2)C(Cc2ccc(N=C(N)N)cc2)NC(=O)OCc2ccccc2)cc1.Cl` (stereo not drawn) [UAMC-00050], the “inhibition of neutrophil elastase” value in assay [1] is given as “did not efficiently inhibit”. Besides, the “MPO Activity, Day of VMR” value stood at 0.6 ± 0.2 U/g tissue in assay [2] (control rats, 5.0 mg/kg intracolonic, vehicle 0.3 ± 0.1); 2.0 ± 0.7 U/g tissue in assay [2] (post-colitis rats, 0.1 mg/kg intracolonic, vehicle 0.3 ± 0.2); 2.0 ± 0.5 U/g tissue in assay [2] (post-colitis rats, 1.0 mg/kg intracolonic, vehicle 0.3 ± 0.2); 2.1 ± 0.5 U/g tissue in assay [2] (post-colitis rats, 2.5 mg/kg intracolonic, vehicle 0.3 ± 0.2); 1.7 ± 0.5 U/g tissue in [2] (post-colitis rats, 5.0 mg/kg intracolonic, vehicle 0.3 ± 0.2). Besides, in assay [2] (single intracolonic administration, both control and post-colitis animals), the “Effect on colonic MPO activity” value was “increased”. For the same compound, the “Effect on proteolytic activities in colonic tissue” value in assay [3] is “did not alter”. Besides, the “inhibition of kallikrein 2” value in [4] is recorded as “efficiently inhibits”. The inhibition of matriptase result in assay [5] is “efficiently inhibits”. Also, the inhibition of plasmin entry in assay [6] is “efficiently inhibits”. The “Effects on inflammatory parameters” value in assay [7] is on record as “no effects”. Moreover, the “Colonoscopy, Day of VMR” value in assay [8] (control rats, 5.0 mg/kg intracolonic) is given as 0.0 ± 0.0; in assay [8] (post-colitis rats, 0.1 mg/kg intracolonic) it was 0.0 ± 0.0; in assay [8] (post-colitis rats, 1.0 mg/kg intracolonic), 0.0 ± 0.0; in assay [8] (post-colitis rats, 2.5 mg/kg intracolonic) it was 0.0 ± 0.0; in assay [8] (post-colitis rats, 5.0 mg/kg intracolonic), 0.0 ± 0.0. Further, in [8] (single intracolonic administration, control and post-colitis rats), the “Effect on colonoscopic inflammatory scores” value is recorded as “no effect”. In addition, in assay [9], the pIC50 (in general, the negative decadic logarithm of the IC50, by convention in mol/L) was < 5.00. Further, in assay [10], the “Chymotrypsin-like activity in colonic tissue” value is 0.84 (0.57) U/g. Also, the “inhibition of uPA” value in [11] is given as “efficiently inhibits”.
